Measured values reported in patent US20060099712A1, “Correlation of anti-cancer activity of dyes with redox potentials” (Eastman Kodak Company, priority 2004, published 2006).

Test system: CX-1 Human Colon Carcinoma
Assay: Clonogenic dye screening assay, CX-1 cells (IC50)
Type: cell-based
Parameters: CX: unit not given here
Conditions: for CX: CX-1 cells; for CV/CX: selectivity ratio of IC50 values; for CX (IC50 in the CX-1 cell line): 3 hrs treatment, colonies after 7-10 days, unit from method b117-118; for CV/CX (selectivity, kill ratio): ratio of IC50 in normal CV-1 line to IC50 in carcinoma CX-1 line
Description: CX-1 is a cancerous human colon adenocarcinoma cell line. CV-1 is a non-cancerous control, which is a kidney epithelial cell line from an African green monkey. IC50 is the dye concentration at which 50% of the cells are killed. Selectivity or kill ratio is defined as the ratio of […] at IC50 for both CX-1 and CV-1. A ratio with a high number indicates a high selectivity.
The dyes were screened in two cell lines. CX-1 is a human colon adenocarcinoma cell line. CV-1 is a kidney epithelial cell line from an African green monkey. CV-1 was used as a reference because no normal human epithelial cell line is available for clonogenic assay.
In the initial screen, dyes were examined at six different concentrations to generate a dose response curve. An IC50 value, the concentration at which 50% of the cells are killed, was then calculated. Initially, a dye concentration of 1.0 μg/mL was the highest examined for the CX-1 cell line and 0.005 μg/mL was the lower limit. The corresponding limits on the CV-1 cell line were […].
The screening procedure used a response curve that was determined from eight dye concentrations. The upper and lower limits of CX-1 were 0.32 and 0.0015 μg/mL, respectively, and the corresponding revised limits on CV-1 were 3.2 and 0.025 μg/mL. The screening results were reported by assigning an IC50 value to each dye for the CV-1 and CX-1 cell lines. These values will be referred to herein simply as CV and CX. The most desirable result would be to have a dye that was highly toxic to carcinoma cells but nontoxic to ‘normal’ cells. One measure of this type of selectivity is the ratio of the IC50's in the normal cell line to that in the carcinoma line, CV/CX.
Compounds are screened via an in vitro assay. CV-1 and CX-1 cells are seeded into separate assay plates. The plates are treated with varying concentrations of test compounds, rinsed, and colonies allowed to grow. IC50's are determined and drugs evaluated based on their selectivity and toxicity. Assay Steps: • I. Seeding Cells • II. Weighing • III. Preparation of Solution • IV. Treatment • V. Rinsing and Feeding • VI. Fixing • VII. IC50 Determination I. Seeding Cells
The cells should be seeded 16-30 hours before treatment. The media for CV-1 cells is DME+5% calf serum +5% Nuserum. The media for CX-1 cells is RPMI/DME (50/50)+5% calf serum +5% Nuserum.
(c) number of cells based on 2000 CX-1 cells/well and 1000 CV-1 cells/well. NOTE: Always make enough cell suspension for 1 extra plate to allow for volume loss during transfers.
• (a) For CV-1: 256 ug/ml-256 ul of 1 mg/ml stock +744 ul DMSO • (b) For CX-1: 25.6 ug/ml-100 ul of 256 ug/ml+900 ul DMSO IV. Treatment • 1. Each plate is treated with 4 test compounds, one positive control and one negative control. • 2. Serial dilutions of the compounds are made in the following way:
2 multi-well pipetters are used. One is set for 10 ul and one for 200 ul. Each is equipped with 6 tips spaced such that they fit into the 6 rows of a plate. 390 ul of media is added to the first column of each plate. 10 ul each of 4 compound solutions, a positive and a negative control are taken up and put into the first column of wells. The 200 ul pipetter is then placed in the same wells, pipetted up and down 3 times and two 200 ul aliquots are moved to the next column of wells. This column is pipetted up and down 3 times and 400 ul moved to column 3, etc. The final 400 ul excess from column 8 is discarded.
• 3. Label the plates along the front, each row −1 compound. • 4. Incubate the plates at 37° C. for 3 hrs. V. Rinsing • 1. Prepare several bottles of CX-1 and CV-1 media. • 2. Check for precipitate in first column of each plate and note. • 3. Starting with the plates treated first, rinse several plates at a time by aspirating the treatments and refilling each well with 0.5-1.0 ml of the rinse media. Aspirate and refill 2 more times for a total of 3 rinses. • 4.

[1] = Table XVII, benzotellurazole derivatives

## CCN1/C(=C/C(C)=C/c2[te]c3ccc(C)cc3[n+]2CC)Sc2ccc(Cl)cc21 [R=E, X=S, Z1=5-Me, R2=Me, Z2=5-Cl]
[1]
  CX: 0.10
Table XVII
  CV/CX: 10.0

## CCN1/C(=C/C(C)=C/c2[te]c3ccc(C)cc3[n+]2CC)Sc2ccc(OC)cc21 [R=E, X=S, Z1=5-Me, R2=Me, Z2=5-MeO]
[1]
  CX: 0.03
Table XVII
  CV/CX: 33.3

## CCN1/C(=C/C(C)=C/c2[te]c3ccc(C)cc3[n+]2CC)Sc2ccccc21 [R=E, X=S, Z1=5-Me, R2=Me, Z2=H]
[1]
  CX: 0.03
Table XVII
  CV/CX: 26.6

## CCN1/C(=C/C(=C/c2[te]c3ccc(C)cc3[n+]2CC)c2ccccc2)Sc2ccccc21 [R=E, X=S, Z1=5-Me, R2=Ph, Z2=H]
[1]
  CX: 0.3
Table XVII
  CV/CX: 30.0

## CCN1/C(=C/C(=C/c2[te]c3ccc(OC)cc3[n+]2CC)c2ccccc2)Sc2ccccc21 [R=E, X=S, Z1=5-MeO, R2=Ph, Z2=H]
[1]
  CX: 0.3
Table XVII
  CV/CX: 26.6

## CCN1C(=CC=Cc2[te]c3ccc(C)cc3[n+]2CC)[Te]c2ccc(C)cc21 [R=E, X=Te, Z1=5-Me, R2=H, Z2=5-Me]
[1]
  CX: 0.052
Table XVII
  CV/CX: 7.7

## CN1/C(=C/C=C/c2[te]c3ccc(O)cc3[n+]2C)[Te]c2ccc(O)cc21 [R=M, X=Te, Z1=5-OH, R2=H, Z2=5-OH]
Table XVII
  CV/CX: 7.6

## CN1C(=CC=Cc2[te]c3ccccc3[n+]2C)[Te]c2ccccc21 [R=M, X=Te, Z1=H, R2=H, Z2=H]
[1]
  CX: 0.30
Table XVII
  CV/CX: 16.7

## CCN1/C(=C/C=C/c2[te]c3cc(OC)c(OC)cc3[n+]2C)Sc2ccccc21 [R=M/E, X=S, Z1=5,6-MeO, R2=H, Z2=H]
[1]
  CX: 0.5
Table XVII
  CV/CX: 2.0

## CCN1C(=CC=Cc2sc3ccccc3[n+]2CC)N(CC)c2cc(Cl)c(Cl)cc21 [benzimidazole(5,6-Cl)]
Table XVI, unsymmetrical dyes
  CX: 0.260
Table XVI
  CV/CX: 0.8

## CCN1/C(=C/C=C/c2sc3c([n+]2C)CCCC3)Sc2ccccc21.[I-] [benzothiazole(4,5,6,7-H)]
Table XVI, unsymmetrical dyes
  CX: <0.005
Table XVI
  CV/CX: >60.0

## O=C(C[n+]1c(/C=C/C=C2/Nc3ccccc3S2)sc2ccccc21)N1CCOCC1 [drawing 36|CC(═O)morpholino|H]
  CX (IC50 in the CX-1 cell line): >0.32 µg/mL
  CV/CX (selectivity, kill ratio): 10.0

## CCSC(CCN1/C(=C/C=C/c2sc3ccccc3[n+]2CCC(SCC)SCC)Sc2ccccc21)SCC [drawing 36|CCC(SEt)2|CCC(SEt)2]
  CX (IC50 in the CX-1 cell line): >0.32 µg/mL
  CV/CX (selectivity, kill ratio): <4.1

## OCCN1C(=CC=Cc2sc3ccccc3[n+]2CCO)Sc2ccccc21 [drawing 36|CCOH|CCOH]
  CX (IC50 in the CX-1 cell line): >0.32 µg/mL
  CV/CX (selectivity, kill ratio): 10.0
Listed as N,N′-di(2-hydroxyethyl) dye
  CV/CX (selectivity, kill ratio): not active

## CSCCN1/C(=C\C=C\c2sc3ccccc3[n+]2CCSC)Sc2ccccc21 [drawing 36|CCSMe|CCSMe]
  CX (IC50 in the CX-1 cell line): 0.015 µg/mL
  CV/CX (selectivity, kill ratio): 12

## C=C(Br)C[n+]1c(/C=C/C=C2\Oc3ccccc3N2CC)sc2ccccc21 [drawing 37|CC(Br)═C|Et]
  CX (IC50 in the CX-1 cell line): 0.03 µg/mL
  CV/CX (selectivity, kill ratio): 33.3

## CCN1/C(=C/C=C/c2sc3ccccc3[n+]2CC(N)=O)Oc2ccccc21 [drawing 37|CC(═O)N|Et]
  CV/CX (selectivity, kill ratio): >10.0

## CCN1/C(=C/C=C/c2sc3ccccc3[n+]2CC(=O)c2ccc(O)cc2O)Oc2ccccc21 [drawing 37|CC(═O)Ph-2,4-OH|Et]
  CX (IC50 in the CX-1 cell line): 0.3 µg/mL
  CV/CX (selectivity, kill ratio): >33.3

## CCN1/C(=C\C=C\c2sc3ccccc3[n+]2CC(=O)c2ccc(O)c(O)c2)Oc2ccccc21 [drawing 37|CC(═O)Ph-3,4-OH|Et]
  CX (IC50 in the CX-1 cell line): >1.0 µg/mL
  CV/CX (selectivity, kill ratio): 10.0

## CCN1/C(=C/C=C/c2sc3ccccc3[n+]2CC(=O)c2ccccc2)Oc2ccccc21 [drawing 37|CC(═O)Ph|Et]
  CX (IC50 in the CX-1 cell line): 0.3 µg/mL
  CV/CX (selectivity, kill ratio): 10.0

## CCN1/C(=C/C=C/c2sc3ccccc3[n+]2CC(=O)N2CCOCC2)Oc2ccccc21 [drawing 37|CC(═O)morpholino|Et]
  CX (IC50 in the CX-1 cell line): >1.0 µg/mL
  CV/CX (selectivity, kill ratio): 10.0

## CCN1/C(=C/C=C/c2sc3ccccc3[n+]2CCC(=O)N(c2ccccc2)C(C)C)Oc2ccccc21 [drawing 37|CCC(═0)N(iPr)Ph|Et]
  CX (IC50 in the CX-1 cell line): 0.03 µg/mL
  CV/CX (selectivity, kill ratio): 26.7

## CCC=NNC(N)=S [drawing 37|CCC═NNC(═S)N|Et]
  CX (IC50 in the CX-1 cell line): >1.0 µg/mL
  CV/CX (selectivity, kill ratio): 10.0

## CCN1/C(=C/C=C/c2sc3ccccc3[n+]2CCC=NNS(=O)(=O)c2ccc(C)cc2)Oc2ccccc21 [drawing 37|CCC═NNSO2Ph-4C|Et]
  CX (IC50 in the CX-1 cell line): 0.3 µg/mL
  CV/CX (selectivity, kill ratio): 33.3

## CCN1/C(=C/C=C/c2sc3ccccc3[n+]2CCC=O)Oc2ccccc21 [drawing 37|CCC═O|Et]
  CX (IC50 in the CX-1 cell line): 0.1 µg/mL
  CV/CX (selectivity, kill ratio): 50.0

## CCN1/C(=C/C=C/c2sc3ccccc3[n+]2CCNS(=O)(=O)c2ccc(C)cc2)Oc2ccccc21 [drawing 37|CCNSO2Ph-4C|Et]
  CX (IC50 in the CX-1 cell line): 0.3 µg/mL
  CV/CX (selectivity, kill ratio): 26.7

## CCN1/C(=C/C=C/c2sc3ccccc3[n+]2CCS(=O)(=O)CC)Oc2ccccc21 [drawing 37|CCSO2CC|Et]
  CX (IC50 in the CX-1 cell line): 0.3 µg/mL
  CV/CX (selectivity, kill ratio): >33.3

## CCN(CC)C(=O)C[n+]1c(/C=C/C=C2\Oc3ccccc3N2CC)sc2ccccc21 [drawing 37|Cc(═0)N(Et)2|Et]
  CX (IC50 in the CX-1 cell line): 0.3 µg/mL
  CV/CX (selectivity, kill ratio): >33.3

## CC[n+]1c(/C=C/C=C2\Oc3ccccc3N2CC(=O)c2ccccc2)sc2ccccc21 [drawing 37|Et|C(C═O)Ph]
  CX (IC50 in the CX-1 cell line): 0.8 µg/mL
  CV/CX (selectivity, kill ratio): 3.7

## CC[n+]1c(/C=C/C=C2\Oc3ccccc3N2CC(F)(F)F)sc2ccccc21 [drawing 37|Et|CC(F)3]
  CX (IC50 in the CX-1 cell line): 0.1 µg/mL
  CV/CX (selectivity, kill ratio): 50.0

## CC[n+]1c(/C=C(/C=C2\Sc3ccccc3N2C)SC)sc2ccccc21 [drawing 38|E/M|H|SMe|H]
  CX (IC50 in the CX-1 cell line): 0.008 µg/mL
  CV/CX (selectivity, kill ratio): 37.5

## CC[n+]1c(/C=C(/C=C2\Sc3ccccc3N2C)Sc2ccccc2)sc2ccccc21 [drawing 38|E/M|H|SPh|H]
  CX (IC50 in the CX-1 cell line): 0.07 µg/mL
  CV/CX (selectivity, kill ratio): 10.0

## CCN1C(=CC(=Cc2sc3ccccc3[n+]2CC)c2cccs2)Sc2ccccc21 [drawing 38|E|H|2Thienyl|H]
  CX (IC50 in the CX-1 cell line): 0.16 µg/mL
  CV/CX (selectivity, kill ratio): 10.0

## CCN1/C(=C/C(=C/c2sc3ccccc3[n+]2CC)C(=S)SC)Sc2ccccc21 [drawing 38|E|H|C(═S)SC|H]
  CV/CX (selectivity, kill ratio): >10.0

## CCN1/C(=C/C(=C/c2sc3ccccc3[n+]2CC)C(=S)[S-])Sc2ccccc21 [drawing 38|E|H|C(═S)S—|H]
  CX (IC50 in the CX-1 cell line): >0.32 µg/mL
  CV/CX (selectivity, kill ratio): <8.7

## CCC(=Cc1sc2ccccc2[n+]1CC)C=C1Sc2ccccc2N1CC [drawing 38|E|H|Et|H]
  CV/CX (selectivity, kill ratio): 10.0

## CCN1C(=CC(C)=Cc2sc3ccccc3[n+]2CC)Sc2ccccc21 [drawing 38|E|H|Me|H]
  CV/CX (selectivity, kill ratio): 8.0

## CCN1C(=CC(=Cc2sc3ccccc3[n+]2CC)SC)Sc2ccccc21 [drawing 38|E|H|SMe|H]
  CX (IC50 in the CX-1 cell line): 0.24 µg/mL
  CV/CX (selectivity, kill ratio): 1.25
